As usually defined, the MIC80 is an inhibitory concentration at the 80% level, which refers to growth in some studies and to a panel of isolates in others. A higher MIC80 goes with lower susceptibility.

Converted amounts (≈) assume the structure as drawn.

One experiment has as its system Candida albicans. Put plainly: Antifungal activity against Candida albicans after 48 hrs by spectrophotometry. The class given is functional.
Conditions: not given
For `OC(CN1CCC(c2nc(-c3ccco3)no2)CC1)(Cn1cncn1)c1ccc(F)cc1F` (configuration not stated), the MIC80 is 0.063 µg/mL (≈ 0.138 µM).

With `OC(CN1CCC(c2nnc(-c3ccc(Cl)cc3)o2)CC1)(Cn1cncn1)c1ccc(F)cc1F` (configuration not stated), the MIC80 is 0.5 µg/mL (≈ 0.998 µM).

`OC(CN1CCC(c2nc(-c3ccc(F)cc3)no2)CC1)(Cn1cncn1)c1ccc(F)cc1F` (configuration not stated) gave an MIC80 of 0.5 µg/mL (≈ 1.03 µM).

In the case of `Cc1cccc(-c2nnc(C3CCN(CC(O)(Cn4cncn4)c4ccc(F)cc4F)CC3)o2)c1` (configuration not stated), the MIC80 was 0.25 µg/mL (≈ 0.52 µM).

`OC(CN1CCC(c2nnc(-c3ccncc3)o2)CC1)(Cn1cncn1)c1ccc(F)cc1F` (configuration not stated) had an MIC80 of 2 µg/mL (≈ 4.28 µM).

With `OC(CN1CCC(c2nnc(-c3cccnc3)o2)CC1)(Cn1cncn1)c1ccc(F)cc1F` (configuration not stated), the MIC80 is 0.125 µg/mL (≈ 0.267 µM).

The test system of the next experiment is Candida parapsilosis. Nature of the experiment: Antifungal activity against Candida parapsilosis after 48 hrs by spectrophotometry. It counts as functional. The following applies: Lodderomyces parapsilosis.
As to `OC(CN1CCC(c2nc(-c3ccco3)no2)CC1)(Cn1cncn1)c1ccc(F)cc1F` (configuration not stated), the MIC80 was 1 µg/mL (≈ 2.19 µM).

In turn, `OC(CN1CCC(c2nnc(-c3ccc(Cl)cc3)o2)CC1)(Cn1cncn1)c1ccc(F)cc1F` (configuration not stated) registered an MIC80 of 4 µg/mL (≈ 7.99 µM).

With `OC(CN1CCC(c2nc(-c3ccc(F)cc3)no2)CC1)(Cn1cncn1)c1ccc(F)cc1F` (configuration not stated), the MIC80 was 2 µg/mL (≈ 4.13 µM).

For `Cc1cccc(-c2nnc(C3CCN(CC(O)(Cn4cncn4)c4ccc(F)cc4F)CC3)o2)c1` (configuration not stated), the MIC80 was 2 µg/mL (≈ 4.16 µM).

The compound `OC(CN1CCC(c2nnc(-c3ccncc3)o2)CC1)(Cn1cncn1)c1ccc(F)cc1F` (configuration not stated) yielded an MIC80 of 16 µg/mL (≈ 34.2 µM).

With `OC(CN1CCC(c2nnc(-c3cccnc3)o2)CC1)(Cn1cncn1)c1ccc(F)cc1F` (configuration not stated), the MIC80 turned out to be 1 µg/mL (≈ 2.14 µM).

For a further experiment, the system named is Cryptococcus neoformans. Nature of the experiment: Antifungal activity against Cryptococcus neoformans after 48 hrs by spectrophotometry. The class given is functional.
Conditions: not given
In turn, `OC(CN1CCC(c2nc(-c3ccco3)no2)CC1)(Cn1cncn1)c1ccc(F)cc1F` (configuration not stated) had an MIC80 of 0.5 µg/mL (≈ 1.1 µM).

The compound `OC(CN1CCC(c2nnc(-c3ccc(Cl)cc3)o2)CC1)(Cn1cncn1)c1ccc(F)cc1F` (configuration not stated) displayed an MIC80 of 1 µg/mL (≈ 2 µM).

`OC(CN1CCC(c2nc(-c3ccc(F)cc3)no2)CC1)(Cn1cncn1)c1ccc(F)cc1F` (configuration not stated) showed an MIC80 of 1 µg/mL (≈ 2.06 µM).

For the compound `Cc1cccc(-c2nnc(C3CCN(CC(O)(Cn4cncn4)c4ccc(F)cc4F)CC3)o2)c1` (configuration not stated), the MIC80 was 1 µg/mL (≈ 2.08 µM).

`OC(CN1CCC(c2nnc(-c3ccncc3)o2)CC1)(Cn1cncn1)c1ccc(F)cc1F` (configuration not stated) had an MIC80 of 4 µg/mL (≈ 8.56 µM).

Take `OC(CN1CCC(c2nnc(-c3cccnc3)o2)CC1)(Cn1cncn1)c1ccc(F)cc1F` (configuration not stated): the MIC80 was 0.5 µg/mL (≈ 1.07 µM).

A further experiment deals with Nakaseomyces glabratus. Nature of the experiment: Antifungal activity against Candida glabrata after 48 hrs by spectrophotometry. The class given is functional.
Conditions: not given
The compound `OC(CN1CCC(c2nc(-c3ccco3)no2)CC1)(Cn1cncn1)c1ccc(F)cc1F` (configuration not stated) displayed an MIC80 of 1 µg/mL (≈ 2.19 µM).

The compound `OC(CN1CCC(c2nnc(-c3ccc(Cl)cc3)o2)CC1)(Cn1cncn1)c1ccc(F)cc1F` (configuration not stated) registered an MIC80 of 8 µg/mL (≈ 16 µM).

For the compound `OC(CN1CCC(c2nc(-c3ccc(F)cc3)no2)CC1)(Cn1cncn1)c1ccc(F)cc1F` (configuration not stated), the MIC80 is 2 µg/mL (≈ 4.13 µM).

On to `Cc1cccc(-c2nnc(C3CCN(CC(O)(Cn4cncn4)c4ccc(F)cc4F)CC3)o2)c1` (configuration not stated), for which the MIC80 amounted to 2 µg/mL (≈ 4.16 µM).

`OC(CN1CCC(c2nnc(-c3ccncc3)o2)CC1)(Cn1cncn1)c1ccc(F)cc1F` (configuration not stated) came in with an MIC80 of 16 µg/mL (≈ 34.2 µM).

The compound `OC(CN1CCC(c2nnc(-c3cccnc3)o2)CC1)(Cn1cncn1)c1ccc(F)cc1F` (configuration not stated) yielded an MIC80 of 4 µg/mL (≈ 8.56 µM).

The next experiment has as its system Aspergillus fumigatus. Put plainly: Antifungal activity against Aspergillus fumigatus after 48 hrs by spectrophotometry. The class given is functional.
Conditions: not given
Regarding `OC(CN1CCC(c2nc(-c3ccco3)no2)CC1)(Cn1cncn1)c1ccc(F)cc1F` (configuration not stated), the MIC80 was found to be 1 µg/mL (≈ 2.19 µM).

For the compound `OC(CN1CCC(c2nnc(-c3ccc(Cl)cc3)o2)CC1)(Cn1cncn1)c1ccc(F)cc1F` (configuration not stated), the MIC80 was 8 µg/mL (≈ 16 µM).

As for `OC(CN1CCC(c2nc(-c3ccc(F)cc3)no2)CC1)(Cn1cncn1)c1ccc(F)cc1F` (configuration not stated), the MIC80 was found to be 2 µg/mL (≈ 4.13 µM).

`Cc1cccc(-c2nnc(C3CCN(CC(O)(Cn4cncn4)c4ccc(F)cc4F)CC3)o2)c1` (configuration not stated) displayed an MIC80 of 2 µg/mL (≈ 4.16 µM).

In the case of `OC(CN1CCC(c2nnc(-c3ccncc3)o2)CC1)(Cn1cncn1)c1ccc(F)cc1F` (configuration not stated), the MIC80 was determined as 16 µg/mL (≈ 34.2 µM).

On to `OC(CN1CCC(c2nnc(-c3cccnc3)o2)CC1)(Cn1cncn1)c1ccc(F)cc1F` (configuration not stated), for which the MIC80 came to 4 µg/mL (≈ 8.56 µM).

The subject of the next experiment is Trichophyton rubrum. Nature of the experiment: Antifungal activity against Trichophyton rubrum after 48 hrs by spectrophotometry. It counts as functional.
Conditions: not given
With `OC(CN1CCC(c2nc(-c3ccco3)no2)CC1)(Cn1cncn1)c1ccc(F)cc1F` (configuration not stated), the MIC80 was 2 µg/mL (≈ 4.38 µM).

Take `OC(CN1CCC(c2nnc(-c3ccc(Cl)cc3)o2)CC1)(Cn1cncn1)c1ccc(F)cc1F` (configuration not stated): the MIC80 worked out at 8 µg/mL (≈ 16 µM).

In turn, `OC(CN1CCC(c2nc(-c3ccc(F)cc3)no2)CC1)(Cn1cncn1)c1ccc(F)cc1F` (configuration not stated) yielded an MIC80 of 4 µg/mL (≈ 8.26 µM).

Turning to `Cc1cccc(-c2nnc(C3CCN(CC(O)(Cn4cncn4)c4ccc(F)cc4F)CC3)o2)c1` (configuration not stated), the MIC80 amounted to 2 µg/mL (≈ 4.16 µM).

Compound `OC(CN1CCC(c2nnc(-c3ccncc3)o2)CC1)(Cn1cncn1)c1ccc(F)cc1F` (configuration not stated) registered an MIC80 of 32 µg/mL (≈ 68.5 µM).

Take `OC(CN1CCC(c2nnc(-c3cccnc3)o2)CC1)(Cn1cncn1)c1ccc(F)cc1F` (configuration not stated): the MIC80 is 4 µg/mL (≈ 8.56 µM).

Another experiment has as its system Nannizzia gypsea. Nature of the experiment: Antifungal activity against Microsporum gypseum after 48 hrs by spectrophotometry. It counts as functional.
Conditions: not given
Compound `OC(CN1CCC(c2nc(-c3ccco3)no2)CC1)(Cn1cncn1)c1ccc(F)cc1F` (configuration not stated) came in with an MIC80 of 2 µg/mL (≈ 4.38 µM).

For `OC(CN1CCC(c2nnc(-c3ccc(Cl)cc3)o2)CC1)(Cn1cncn1)c1ccc(F)cc1F` (configuration not stated), the MIC80 was found to be 64 µg/mL (≈ 128 µM).

As to `OC(CN1CCC(c2nc(-c3ccc(F)cc3)no2)CC1)(Cn1cncn1)c1ccc(F)cc1F` (configuration not stated), the MIC80 amounted to 1 µg/mL (≈ 2.06 µM).

Turning to `Cc1cccc(-c2nnc(C3CCN(CC(O)(Cn4cncn4)c4ccc(F)cc4F)CC3)o2)c1` (configuration not stated), the MIC80 is 0.5 µg/mL (≈ 1.04 µM).

Regarding `OC(CN1CCC(c2nnc(-c3ccncc3)o2)CC1)(Cn1cncn1)c1ccc(F)cc1F` (configuration not stated), the MIC80 was 4 µg/mL (≈ 8.56 µM).

On to `OC(CN1CCC(c2nnc(-c3cccnc3)o2)CC1)(Cn1cncn1)c1ccc(F)cc1F` (configuration not stated), for which the MIC80 was 4 µg/mL (≈ 8.56 µM).
